# Experimental data published in patent EP0187551A1, “Pyrazolo[4,3-c]cinnolin-3-one derivatives, their salts, preparation process, use as medicaments, compositions containing them and intermediate products” (ROUSSEL-UCLAF, priority 1985, dated 1986).
# Tests used:
# rats [1] = assay: Four-plate test (test des 4 plaques), rats; assay type: in vivo; settings: 20 mg/Kg per os, 1/2 h after administration
# Protocol: (§1) L'appareil (Apelab) et le protocole utilisés ont été décrits par BOISSIER et coll. (European J. Pharmacol. 1968, 4, 145). Les plaques sont reliées à un stimulateur (U. Sachs, Roucaire) qui permet de délivrer des chocs électriques de 120 volts pendant 0,5 s. Les essais sont réalisés sur des lots de 10 souris ou rats 1/2 h après administration per os du composé étudié. Chaque animal est déposé individuellement sur l'appareil. Après 15s d'exploration libre , il est soumis à un choc électrique chaque fois qu'il passe d'une plaque à l'autre, un minimum de 3 secondes étant observé entre deux chocs. Le nombre de chocs délivrés est compté pendant 1 minute. Les résultats obtenus sont comparés à ceux observés chez des animaux témoins par un test de Dunnett.
# [2] = molecular target: récepteurs des benzodiazépines; assay: Affinity for benzodiazepine receptors (displacement of 3H diazepam, rat cortex membranes); set-up: species or system rats; settings: concentration inhibiting 50 % of specific 3H diazepam (10^-9M) binding, 30 min at 0°C, read-out: CI 50 (the source's name)
# Protocol: 1) Affinité pour les récepteurs des benzodiazépines.
# On homogénéise au vingtième (poids/volume) dans le sucrose 0,32M, les cortex prélevés sur des cerveaux de rats mâles pesant 150 g en moyenne.
# Après centrifugation de l'homogénat à 1000 g pendant 10 minutes à 0°C, le surnageant est centrifugé à 30 000 g pendant 20 minutes à +4"C. Le culot est mis en suspension dans 20 volumes de tampon Tris Hcl 50mM pH 7,4 et centrifugé à 30 000 g pendant 20 minutes à +4°c. Le nouveau culot obtenu est mis en suspension dans 50 ml de tampon Krebs Tris HCl pH 7,4.
# On fait ensuite incuber pendant 30 minutes à 0°C, 2 ml de suspension en présence de ^3H diazepam à la concentration 10-^9M, seul, avec des concentrations croissantes du produit à tester, ou, pour déterminer la fixation non spécifique, avec du diazepam non radioactif à la concentration 10^-6M.
# Les suspensions incubées sont filtrées sur Whatman GF/C et les filtres sont lavés par deux fois 5 ml de tampon Krebs Tris HCl pH 7,4 à 0°C.
# La radioactivité des filtres est mesurée par scintillation liquide.
# L'activité du produit est exprimée en C. I. 50 : concentration inhibant 50 % de la liaison spécifique de ^3H diazepam déterminée graphiquement.
# rats [3] = assay: Staircase test (test de l'escalier); assay type: in vivo; settings: 20 mg/Kg, 1 h after administration, counted for 3 min
# Source text: L'appareil et le protocole utilisés ont été décrits par THIEBOT et coll. (Psychopharmacologia (Berlin) 1973, 31, 77).
# L'expérimentation est réalisée sur des lots de 15 rats naifs. Les animaux sont déposés individuellement dans l'enceinte 1 heure après l'administration du composé étudié. Le nombre de redressements effectués et le nombre de marches montées sont comptés pendant 3 mn.
# souris = assay: Four-plate test (test des 4 plaques), mice; assay type: in vivo; settings: 1/2 h after administration
# Protocol: as §1
smiles,measurement,setting,value
"O=c1c2n[nH]c3ccc(Cl)cc3c-2nn1-c1ccccc1 [Exemple 1, 8-chloro-2,5-dihydro-2-phényl 3H-pyrazolo/4,3-c/ cinnolin-3-one]",augmentation du nombre de chocs délivrés,rats [1],41%
same,IC50,[2],1.4 nM
same,diminution du nombre de redressements,rats [3],46%
same,nombre de marches montées,rats [3],sans modification notable
same,augmentation du nombre de chocs délivrés,souris; 20 mg/Kg per os,63%
"O=c1c2n[nH]c3ccccc3c-2nn1-c1ccccc1 [Exemple 3, 2,5-dihydro-2-phényl 3H-pyrazolo/4,3-c/ cinnolin-3-one]",augmentation du nombre de chocs,souris; 50 mg/kg per os,50%
"O=c1c2n[nH]c3ccccc3c-2nn1-c1ccccn1 [Exemple 8, Chlorhydrate du 2,5-dihydro-(2-pyridin-2-yl) 3H-pyrazolo /4,3-c/ cinnolin-3-one]",augmentation du nombre de chocs,souris; 100 mg/kg per os,50%
